Measurements from BindingDB's records for patent US20240299360 (Jiangsu Hengrui Pharmaceuticals, 2024).
Values joined by “and” are separate entries in the source; they are usually repeats but may differ in a detail not shown here. Equal entries are not always repeated.

Assays:
[1] = biological target: T1, A disintegrin and metalloproteinase with thrombospondin motifs 5 (Homo sapiens, UniProt Q9UNA0); assay: In Vitro ELISA (Enzyme-Linked Immunosorbent Assay) of ADAMTS-5 Activity
T1 sequence (Q9UNA0 whole entry): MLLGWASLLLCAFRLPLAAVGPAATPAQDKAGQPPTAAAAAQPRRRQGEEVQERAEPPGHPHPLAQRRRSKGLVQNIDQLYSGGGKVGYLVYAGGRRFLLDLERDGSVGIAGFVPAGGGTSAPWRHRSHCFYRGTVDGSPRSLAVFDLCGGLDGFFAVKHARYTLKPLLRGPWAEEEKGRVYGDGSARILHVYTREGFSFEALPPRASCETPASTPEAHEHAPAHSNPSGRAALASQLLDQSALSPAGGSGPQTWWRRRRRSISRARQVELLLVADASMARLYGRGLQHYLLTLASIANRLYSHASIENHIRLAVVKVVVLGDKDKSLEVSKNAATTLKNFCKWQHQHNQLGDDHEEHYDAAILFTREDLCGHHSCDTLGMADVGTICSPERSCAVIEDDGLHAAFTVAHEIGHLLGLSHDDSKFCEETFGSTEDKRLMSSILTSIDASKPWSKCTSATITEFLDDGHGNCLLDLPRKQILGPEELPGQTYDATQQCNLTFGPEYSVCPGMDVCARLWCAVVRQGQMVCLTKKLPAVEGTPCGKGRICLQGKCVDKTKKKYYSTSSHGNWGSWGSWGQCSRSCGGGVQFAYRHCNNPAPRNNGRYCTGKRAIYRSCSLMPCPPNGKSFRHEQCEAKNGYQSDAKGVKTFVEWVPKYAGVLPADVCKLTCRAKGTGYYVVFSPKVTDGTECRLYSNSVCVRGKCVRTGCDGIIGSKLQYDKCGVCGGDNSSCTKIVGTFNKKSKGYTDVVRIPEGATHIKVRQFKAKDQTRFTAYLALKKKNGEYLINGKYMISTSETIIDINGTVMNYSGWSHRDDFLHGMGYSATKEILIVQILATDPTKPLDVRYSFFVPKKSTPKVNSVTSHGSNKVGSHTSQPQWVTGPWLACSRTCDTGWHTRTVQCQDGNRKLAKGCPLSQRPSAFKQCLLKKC
Description: Table 2: In this assay, the enzymatic activity of recombinant ADAMTS-5 protein (catalog #2198-AD, R&D Systems) was assayed with a protein substrate, the aggrecan IGD protein. The aggrecan IGD protein is a polypeptide connecting human aggrecan globular domains 1 and 2 (T331-G458) expressed in E. Coli with a C-terminal His-tag (catalog #30411000, BIOTEZ). The enzymatic product ARGSVIL-peptide was detected using an ELISA kit from BioTEZ (catalog #30510111). An assay buffer containing 50 mM HEPES pH 7.5, 100 mM NaCl, 5 mM CaCl2), 0.1% CHAPS and 5% Glycerol was prepared. Recombinant ADAMTS-5 protein was diluted to 0.3 nM in the assay buffer. […] and 10 μl of compound solution was transferred to each well of a 96-well plate and incubated at room temperature for 15 minutes. Substrate aggrecan-IGD was diluted to 100 nM with the assay buffer and 20 μl was added to each well. The plate was incubated at 37° C. for 45 minutes. After incubation, the newly generated epitope ARGSVIL-peptides were measured using the Aggrecanase Activity ELISA Assay Kit following the manufacturer's instructions. Then, 100 μl of stop solution was added and the absorbance of each well was read at 450 nm, using […] as reference on a TECAN plate reader.

[2] = biological target: T2, A disintegrin and metalloproteinase with thrombospondin motifs 4 (Homo sapiens, UniProt O75173); assay: In Vitro Fluorescence Assay of ADAMTS-4 or ADAMTS-5 Activity
T2 sequence (O75173 whole entry): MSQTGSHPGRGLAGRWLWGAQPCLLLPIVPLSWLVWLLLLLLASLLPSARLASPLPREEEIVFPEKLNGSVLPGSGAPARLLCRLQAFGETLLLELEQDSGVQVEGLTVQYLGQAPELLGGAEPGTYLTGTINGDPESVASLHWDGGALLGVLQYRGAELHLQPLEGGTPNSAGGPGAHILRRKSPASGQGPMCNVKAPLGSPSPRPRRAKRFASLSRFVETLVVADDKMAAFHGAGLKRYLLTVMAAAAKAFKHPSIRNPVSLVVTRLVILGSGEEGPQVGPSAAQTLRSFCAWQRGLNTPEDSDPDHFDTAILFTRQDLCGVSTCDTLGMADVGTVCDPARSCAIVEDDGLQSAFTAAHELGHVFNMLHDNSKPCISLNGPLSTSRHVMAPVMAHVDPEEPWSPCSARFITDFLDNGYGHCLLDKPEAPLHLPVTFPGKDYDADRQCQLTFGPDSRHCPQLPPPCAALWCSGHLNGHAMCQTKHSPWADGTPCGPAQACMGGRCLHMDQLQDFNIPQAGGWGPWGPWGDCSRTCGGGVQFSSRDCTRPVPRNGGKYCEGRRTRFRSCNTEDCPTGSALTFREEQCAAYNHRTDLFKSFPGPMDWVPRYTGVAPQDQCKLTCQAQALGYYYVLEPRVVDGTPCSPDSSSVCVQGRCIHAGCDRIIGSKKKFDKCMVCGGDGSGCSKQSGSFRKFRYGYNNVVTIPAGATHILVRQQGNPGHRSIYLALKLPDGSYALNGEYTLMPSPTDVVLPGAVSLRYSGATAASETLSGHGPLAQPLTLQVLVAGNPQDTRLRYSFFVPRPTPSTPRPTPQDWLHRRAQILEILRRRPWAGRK
Description: Table 1: A FRET (fluorescence resonance energy transfer) peptide was cleaved by recombinant ADAMTS-4 or ADAMTS-5 proteins into two separate fragments resulting in an increase of fluorescence signal which was quantified. The peptide was 5-FAM-TEGEARGSVILLK(5-TAMRA)K-NH2, customized from ANASPEC. ADAMTS-4 recombinant protein (catalog #4307-AD) and ADAMTS-5 recombinant protein (catalog #2198-AD) were purchased from R&D Systems. An assay buffer containing 50 mM HEPES pH 7.5, 100 mM NaCl, 5 mM CaCl2, 0.1% CHAPS and 5% Glycerol was prepared. A volume of 2.5 μl of compound in the assay buffer was dispensed to a 384-well plate, and 2.5 μl of ADAMTS-4 or ADAMTS-5 protein (final concentration in the reaction was 10 nM) was added. The compounds and proteins were pre-incubated at room temperature for 15 minutes. Then, 5 μl of substrate was added to each well. The final substrate concentrations for ADAMTS-4 and ADAMTS-5 were 15 μM and 8 μM, respectively. The fluorescence signal in each well was determined, after incubation at 37° C. for 3 hours, on a TECAN plate reader (Excitation, 490 nm; Emission, 520 nm).

## CC(C[C@@]1(C2CC2)NC(=O)NC1=O)C(=O)N1Cc2cc(Cl)c(Cl)cc2C1C (some centres not stated) [US20240299360, Example 70]
[1]
  IC50: 26 nM and 83 nM
[2]
  IC50: 20 nM
